Measured values published in patent publication US11098083B2, “Peptide that regulates fat metabolism and method for regulating fat metabolism” (SHENZHEN INSTITUTES OF ADVANCED TECHNOLOGY, priority 2017, dated 2021).
One block for each substance: values may come before it. Ends that are not written are not given here.

Tests used:
human GPRC6A (hGPRC6A) = target: T1, human GPRC6A (hGPRC6A) (Homo sapiens, UniProt Q5T6X5); test: fluorescent binding of OCN peptides to cell membranes of Hela cells with hGPRC6A overexpressed; conditions: cell membranes of Hela cells with hGPRC6A overexpressed, FIG. 6B
T1 construct: expressed in transfected cells; host or cells: Hela cells (transfected with Lipofectamine 2000)
T1 sequence (Q5T6X5 19-926): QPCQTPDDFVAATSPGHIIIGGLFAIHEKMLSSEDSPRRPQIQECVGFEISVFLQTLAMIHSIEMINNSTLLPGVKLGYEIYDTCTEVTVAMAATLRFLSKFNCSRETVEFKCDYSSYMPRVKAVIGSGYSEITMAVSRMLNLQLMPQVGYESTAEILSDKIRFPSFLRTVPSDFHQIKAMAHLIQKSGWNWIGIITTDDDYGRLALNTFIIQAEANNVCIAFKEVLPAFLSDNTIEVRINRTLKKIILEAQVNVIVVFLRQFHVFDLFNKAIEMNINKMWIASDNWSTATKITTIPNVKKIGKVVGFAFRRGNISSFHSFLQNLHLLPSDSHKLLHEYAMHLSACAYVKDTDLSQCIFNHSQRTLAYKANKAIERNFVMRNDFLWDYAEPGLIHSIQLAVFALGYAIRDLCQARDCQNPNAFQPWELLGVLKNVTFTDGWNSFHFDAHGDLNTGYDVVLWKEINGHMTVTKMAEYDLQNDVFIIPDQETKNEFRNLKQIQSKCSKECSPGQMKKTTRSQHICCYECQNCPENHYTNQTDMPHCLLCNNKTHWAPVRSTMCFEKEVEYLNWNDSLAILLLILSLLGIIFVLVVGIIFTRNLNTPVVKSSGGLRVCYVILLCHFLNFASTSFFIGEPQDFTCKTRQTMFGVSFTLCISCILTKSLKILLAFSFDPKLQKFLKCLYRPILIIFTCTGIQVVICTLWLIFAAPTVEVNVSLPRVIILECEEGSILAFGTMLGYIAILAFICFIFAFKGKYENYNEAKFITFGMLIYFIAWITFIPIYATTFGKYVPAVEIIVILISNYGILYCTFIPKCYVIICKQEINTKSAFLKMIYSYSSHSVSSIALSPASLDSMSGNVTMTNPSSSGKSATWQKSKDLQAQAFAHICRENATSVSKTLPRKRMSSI
Protocol: S131: overexpression of hGPRC6A in Hela cells may be established.
1) Cell plating: A Hela cell suspension may be plated at a density of 1.6×10^5 cells/mL into a 6-well tray with 2 mL of DMEM per well, incubating at 37° C. and 5% CO2 for 24 hours.
2) A vector carrying hGPRC6A (pReceiver-M61) may be transfected into the Hela cells for overexpression, using Lipofectamine 2000 (Invitrogen) as per manufacturer's instructions, and media containing the vector may be replaced by normal media 4 hours later.
3) After the transfection, the cells may be cultured in the normal media for another 48 hours, and the normal media may be discarded. The cells attached on a bottom of each well may be washed twice with sterile PBS, and 300 μl of TRIzol solution may be added into each well. Cellular RNAs may be extracted as per RNAiso Plus (TaKaRa) instructions, and after a DNase treatment, may be reversely transcribed into cDNAs using DNAEngine and a SuperScript™ (Invitrogen, Canada) kit. The cDNAs may be used as a template, and real-time monitoring and analysis may be performed to fluorescent PCR products at various time points using a SYBR Green (Light Cycler Roche, Germany) method to detect expression levels of the hGPRC6A. […] The selected cell strain may then be detected for its gene expression by qPCR. […]

HFD mice [1] = test: gavage of peptides in HFD mice for 7 weeks: body weight; type: in vivo, C57BL/6 mice; conditions: gavage 2 pmol/g of body weight for 7 weeks, compared with HFD control group, FIG. 7A
Description: Six-week-old male wild-type C57BL/6 mice may be divided into 6 groups, 6 mice in each group. Group #1 may be provided with ND, and groups #2 to #6 may be provided with HFD. Group #2 may be treated as a HFD control group. Groups #3 to #6 may be experimental groups, and mice ingroups #3 to #6 may be gavaged with OCN, ISAP1, ISAP2, and ISAP3 respectively at 2 pmol/g of body weight for 7 weeks. Body weight of each mouse may be monitored and measured once a week.
Six-week-old male wild-type C57BL/6 mice may be divided into 6 groups, 6 in each group. Group #1 may be provided with ND to be a ND control group, and groups #2 to #6 may be provided with HFD. Group #2 may be treated as a HFD control group. Groups #3 to #6 may be treated as experimental groups and may be gavaged with OCN, ISAP1, ISAP2, and ISAP3 respectively at 2 pmol/g of body weight daily for 7 weeks. Body weight may be monitored and measured once a week.
Six-week-old male wild-type C57BL/6 mice may be divided into 6 groups, 6 in each group. Group #1 may be provided with ND to be a ND control group, groups #2 to #6 may be provided with HFD. Group #2 may be treated as a HFD control group. Groups #3 to #6 may be treated as experimental groups, and may be gavaged with OCN, ISAP1, ISAP2, and ISAP3 respectively at 2 pmol/g of body weight daily for 7 weeks. A body weight of each mouse may be monitored and measured once a week.

HFD mice [2] = test: gavage of peptides in HFD mice: triglyceride in feces, week 7; type: in vivo, C57BL/6 mice; conditions: gavage 2 pmol/g, feces of week 7, compared with HFD control group, FIG. 7B
Protocol: Feces of each mouse may be collected in week 7, baked at 60° C. for 3 days to ensure complete dryness. Then, 1 mg of the feces may be collected and soaked in 1 ml of a mixed solution consisting of chloroform and methanol in a ratio of 2:1. The soaked feces may then be disrupted with a tissue homogenizer and centrifuged to obtain a supernatant. The supernatant may be detected for triglyceride by the Roche blood biochemical analyzer. Experimental results are shown in FIG. 7B. **: P<0.01, ***: P<0.001.
(§1) Feces of the mice may be collected in the 7th week of the experiment and baked at 60° C. for 3 days to ensure complete dryness. Then, 1 mg of the feces may be weighed and soaked in 1 ml of a mixed solution containing chloroform and methanol in a ratio of 2:1. The feces with the mixed solution may be disrupted by a tissue homogenizer and centrifuged to obtain a supernatant. The supernatant may be detected for triglyceride by the Roche blood biochemical analyzer.
as §1, with “2:1.The” for “2:1. The”
as §1, with “each mouse” for “the mice”, “experiment,” for “experiment”, “dryness.” for “dryness. Then,”, “in” for “with”

wild-type C57BL/6 mice = test: gavage of ISAP4, ISAP5, ISAP6: intestinal absorption of fat (olive oil) in normal mice; type: in vivo; conditions: gavage 2 pmol/g daily one week, day 8 olive oil 200 μl, compared with saline control group, FIG. 9
Description: S410: effects of acute gavage of ISAP4, ISAP5, and ISAP6 on intestinal absorption of fat in normal mice may be studied.
15 male wild-type C57BL/6 mice of 6 weeks old may be divided into 5 groups, 3 in each group. There may be 3 experimental groups, and the mice in the 3 experimental groups may be administered with ISAP4, ISAP5, and ISAP6 at 2 pmol/g of body weight respectively. The mice in two control groups may be gavaged with an equal volume of normal saline daily for one week. On the 8th day of the experiment, 30 minutes after gavage of ISAP4, ISAP5, ISAP6 and normal saline respectively, the mice in the three experimental groups may be gavaged with 200 μl of sterilized olive oil, the mice in one of the control groups may also be intragstrically administered with 200 μl of sterilized olive oil to be a saline control group, and the mice in the other one of the control groups may further be gavaged with 200 μl of normal saline to be a negative control group. After 50 minutes, each mouse may be euthanized using 95% CO2 and dissected to obtain small intestines. The jejunum near the duodenum may be frozen and sliced, stained with oil red O, and counterstained with hematoxylin. An oil red O-positive area may be quantified by the ImageJ software under double-blind conditions and a ratio of the oil red O-positive area to a total area of the intestinal villi may be calculated. Statistical analysis may be performed to compare with the mince in the saline+olive oil group. ***: p<0.001. N=3.
The oil red O-positive area may be quantified by the ImageJ software under double-blind conditions and the ratio of the oil red O-positive area to the total area of the intestinal villi may be calculated. […] Meanwhile, referring to the sequence comparison shown in FIG. 8, it can be seen that SEQ ID NO. 12: PVPYPDPLEP, SEQ ID NO. 15: SVPSPDPLEP, SEQ ID NO. 13: PYPDPLEP and SEQ ID NO. 16: PSPDPLEP are highly similar in sequence, and these sequences may be very conservative in various species. […]

GPRC6A = target: T2, GPRC6A (Homo sapiens, UniProt Q5T6X5); test: internalization of GPRC6A with Cy5-labelled peptides in hGPRC6A-overexpressed Hela cells; type: cell-based; conditions: 100 nM, 37° C., 30 minutes, confocal microscope, FIG. 6C
T2 construct: expressed in transfected cells; host or cells: Hela cells (transfected with Lipofectamine 2000)
T2 sequence (Q5T6X5 19-926): T1 sequence (Q5T6X5 19-926)
Protocol: S230: Cy5-labelled OCN, Cy5-labelled hOCN22, and Cy5-labelled ISAP^2 may promote internalization of GPRC6A in the GPRC6A-overexpressed Hela cells.
The hGPRC6A-expressed Hela cell suspension may be plated at a density of 1.6×10^5/ml into a 24-well tray, and each well of the tray may be pre-placed with a gelatin-coated coverslip. 0.5 mL of media containing the cells may be added into each well, and the cells may be incubating at 37° C. and 5% CO2 for 24 hours. The cells may be starved for 4 h in serum-free media before any treatment, and then 100 nM of Cy5-OCN, 100 nM of Cy5-hOCN22, and 100 nM of Cy5-ISAP2 may be added to each well respectively to incubate with the cells at 37° C. for 30 minutes. The cells may be fixed by polyoxymethylene for 30 minutes. Afterwards, Triton X may be added to incubate with the cells for 10 minutes. The cells may be stained with 4′,6-diamidino-2-phenylindole (DAPI, Sigma) for 10 seconds as per manufacturer's instructions, and observed and photographed by a fluorescence confocal microscope.

ability of binding with cell membranes, compared with hOCN (human GPRC6A (hGPRC6A)): consistent with that of hOCN
Substance: YLYQWLGASVPSPDPLEP [ISAP2]
body weight (HFD mice [1]): significant weight loss
content (level) of triglyceride in the feces (HFD mice [2]): significantly increased

Substance: SVPSPDPLEP [ISAP4]
absorption of olive oil in the mice (oil red O-positive area / total area of intestinal villi) (wild-type C57BL/6 mice): effectively reduce the absorption of olive oil

distribution of Cy5-labelled peptide (internalization) (GPRC6A): distributed inside the cell
Substance: Cy5-OCN: Cy-5-labeled OCN (osteocalcin protein) (YLYQWLGAPVPYPDPLEPRREVCELNPDCDELADHIGFQEAYRRFYGPV; ends and bridges not checked; also: Cy5 label, position not given here; UniProt P02818 52-100, looked up) [reference compound]

Substance: PSPDPLEP [ISAP5]
absorption of olive oil in the mice (oil red O-positive area / total area of intestinal villi) (wild-type C57BL/6 mice): effectively reduce the absorption of olive oil

Substance: PDPLEP [ISAP6]
absorption of olive oil in the mice (oil red O-positive area / total area of intestinal villi) (wild-type C57BL/6 mice): effectively reduce the absorption of olive oil

distribution of Cy5-labelled peptide (internalization) (GPRC6A): distributed inside the cell
Substance: Cy5-ISAP2: Cy-5-labeled SEQ ID NO.2 (ISAP2) (YLYQWLGAPVPYPDPLEP; also: Cy5 label, position not given here; listed as Homo sapiens)

Substance: YLYQWLGASVPSPDPLEPR [ISAP3]
body weight (HFD mice [1]): significant weight loss
content (level) of triglyceride in the feces (HFD mice [2]): significantly increased
